Reference: paper PMC9928118, “Funneling modulatory peptide design with generative models: Discovery and characterization of disruptors of calcineurin protein-protein interactions” (PLOS Computational Biology, 2023)

System: GST-tagged Cn
Assay: PEPperPRINT peptide microarray binding assay with GST-tagged Cn
In short: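 Qualitative binding: peptides printed on a PEPperPRINT microarray were incubated overnight at 4 °C with 1 mg/ml GST-tagged Cn, then detected with Alexa-Fluor 647 anti-GST antibody. Log fluorescence was baseline-corrected, averaged over duplicate spots, Z-normalized and averaged across five repeats.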

[1] = GST-tagged Cn, max over the spots named in Location on chip
[2] = GST-tagged Cn, mean over the spots named in Location on chip
[3] = max over the spots listed under Location on chip
[4] = mean over the spots listed under Location on chip
[5] = max over the chip locations listed for the peptide (two spots)
[6] = mean over the chip locations listed for the peptide (two spots)
[7] = GST-tagged Cn, max over the chip locations
[8] = GST-tagged Cn, mean over the chip locations
[9] = GST-tagged Cn, max over the chip spots listed under Location on chip
[10] = GST-tagged Cn, mean over the chip spots listed under Location on chip
[11] = GST-tagged Cn, max over the spots on the chip (two locations)
[12] = GST-tagged Cn, mean over the spots on the chip (two locations)

Sequence: RTYINPFMKFTIWGTQ [SeqRBM_6386]
- Chip Fluorescence (max) [1]: 1.359
- Chip Fluorescence (mean) [2]: -0.5299

Sequence: VNLPIPAVQLADSGAY [SeqRBM_1417]
- Chip Fluorescence (max) [3]: 2.788
- Chip Fluorescence (mean) [4]: 0.6718

Sequence: KRYWKPQFKFGTQVSE [SeqRBM_7919]
- Chip Fluorescence (max) [1]: 1.674
- Chip Fluorescence (mean) [2]: -0.01942

Sequence: SFVHLPDFKVESLVRR [Seqshuffled_9544]
- Chip Fluorescence (max) [5]: 4.191
- Chip Fluorescence (mean) [6]: 0.5898

Sequence: SKMAIAIYQMASCLLH [Seqshuffled_9384]
- Chip Fluorescence (max) [1]: 1.655
- Chip Fluorescence (mean) [2]: 0.8527

Sequence: NFNPNPAVVLKIPQQR [SeqRBM_5953]
- Chip Fluorescence (max) [7]: -0.355
- Chip Fluorescence (mean) [8]: -1.487

Sequence: HVSSSPDVTLTPTQHR [SeqRBMlowT_4550]
- Chip Fluorescence (max) [9]: 0.8955
- Chip Fluorescence (mean) [10]: -0.3348

Sequence: HVSSSPDIAITPTQHR [SeqRBMlowT_750]
- Chip Fluorescence (max) [7]: 0.08257
- Chip Fluorescence (mean) [8]: -1.44

Sequence: TFWTNPQFRITLEDVD [SeqRBMlowT_966]
- Chip Fluorescence (max) [3]: 2.9488
- Chip Fluorescence (mean) [4]: 0.108

Sequence: TFWINPQIVITLADED [SeqRBMlowT_2933]
- Chip Fluorescence (max) [3]: 2.77
- Chip Fluorescence (mean) [4]: 0.3523

Sequence: HSKLIPKLSIQSPVHH [SeqRBMlowT_822]
- Chip Fluorescence (max) [7]: 0.1809
- Chip Fluorescence (mean) [8]: -0.5839

Sequence: PSLYENALGIESFTLS [SeqRBMlowT_6913]
- Chip Fluorescence (max) [3]: 2.963
- Chip Fluorescence (mean) [4]: 0.4149

Sequence: RNPGTALLTLRGHKKQ [SeqRBMlowT_5859]
- Chip Fluorescence (max) [7]: 0.05866
- Chip Fluorescence (mean) [8]: -0.8616

Sequence: KAYMCPYMQFIDGGRK [SeqRBMlowT_9280]
- Chip Fluorescence (max) [1]: 1.462
- Chip Fluorescence (mean) [2]: 1.063

Sequence: TGWTNPQFKLRLENDP [SeqRBM_4269]
- Chip Fluorescence (max) [9]: 0.7861
- Chip Fluorescence (mean) [10]: -0.005549

Sequence: PALYDNALGIESFTLS [SeqCRZ1_Penicillium_arizonense]
- Chip Fluorescence (max) [1]: 1.355
- Chip Fluorescence (mean) [2]: 0.6125

Sequence: STKSSGRPSRSPERAS [SeqRGA2_Colletotrichum_sublineola]
- Chip Fluorescence (max) [3]: 2.848
- Chip Fluorescence (mean) [4]: -0.8116

Sequence: RAYINPFMQFIDGGRR [SeqRBMlowT_1520]
- Chip Fluorescence (max) [1]: 1.802
- Chip Fluorescence (mean) [2]: -0.3387

Sequence: STSSLPTFSFSPPAPS [SeqRBMlowT_2355]
- Chip Fluorescence (max) [1]: 1.468
- Chip Fluorescence (mean) [2]: -0.4662

Sequence: RAYINPFMQFQDGGQR [SeqRBMlowT_1515]
- Chip Fluorescence (max) [1]: 1.533
- Chip Fluorescence (mean) [2]: -0.1627

Sequence: RNPERPKLHLQGHLVA [SeqRBM_9016]
- Chip Fluorescence (max) [11]: 1.316
- Chip Fluorescence (mean) [12]: -0.7354

Sequence: STSSLPTFSFSSPQPS [SeqRBMlowT_3925]
- Chip Fluorescence (max) [11]: 1.1241
- Chip Fluorescence (mean) [12]: -0.7201

Sequence: VALVIRSTDKDDVGNY [SeqCEACAM5_Bactrocera_latifrons]
- Chip Fluorescence (max) [3]: 3.268
- Chip Fluorescence (mean) [4]: 1.368

Sequence: TFWSNPQFRITLEDPD [SeqRBMlowT_45]
- Chip Fluorescence (max) [5]: 4.041
- Chip Fluorescence (mean) [6]: 0.007175

Sequence: APSSWPSIVVSPPELN [SeqRBM_1086]
- Chip Fluorescence (max) [1]: 1.655
- Chip Fluorescence (mean) [2]: -0.3843

Sequence: IKLIIWNHNISNHGTY [SeqRBM_5872]
- Chip Fluorescence (max) [5]: 8.925
- Chip Fluorescence (mean) [6]: 1.809
